Measured values published in the supplement of paper PMC10307832.

Assays:
Assay in all cases: relative viability (nuclei count vs DMSO), 5 days (fraction); higher = more cells survive
[1] = compound: CC1=CC(=NN1)NC2=CC(=NC(=N2)/C=C/C3=CC=CC=C3)N4CCN(CC4)C + Nc1ncn([C@H]2C[C@H](O)[C@@H](CO)O2)c(=O)n1 [Decitabine] (partner 2 µM)
In short: (§1)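 Relative viability was taken as the ratio of nuclei in treated wells to nuclei in vehicle wells. Lung cancer cell lines in 1536-well plates received compounds by pin tool one day after seeding, either one drug alone or a fixed anchor-drug dose plus five library-drug doses (not always all listed) in √10 steps. Nuclei were counted on 4× images after 5 days of treatment, and values are medians of duplicate plates.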

Obatoclax + Pemetrexed = compound: COC1=CC(c2cc3ccccc3[nH]2)=N/C1=C\c1[nH]c(C)cc1C [Obatoclax] + Nc1nc2[nH]cc(CCc3ccc(C(=O)N[C@@H](CCC(=O)O)C(=O)O)cc3)c2c(=O)[nH]1 [Pemetrexed] (partner 0.2 µM)
In short: as §1

Bortezomib + Pictilisib = compound: CC(C)C[C@H](NC(=O)[C@H](Cc1ccccc1)NC(=O)c1cnccn1)B(O)O [Bortezomib] + CS(=O)(=O)N1CCN(Cc2cc3nc(-c4cccc5[nH]ncc45)nc(N4CCOCC4)c3s2)CC1 [Pictilisib] (partner 1 µM)
In short: as §1

Obatoclax + Pictilisib = compound: COC1=CC(c2cc3ccccc3[nH]2)=N/C1=C\c1[nH]c(C)cc1C [Obatoclax] + CS(=O)(=O)N1CCN(Cc2cc3nc(-c4cccc5[nH]ncc45)nc(N4CCOCC4)c3s2)CC1 [Pictilisib] (partner 1 µM)
In short: as §1

Cell Line | relative viability ([1]; first compound 0.08 µM) | relative viability ([1]; first compound 0.253 µM) | relative viability ([1]; first compound 0.8 µM) | relative viability ([1]; first compound 2.53 µM) | relative viability ([1]; first compound 8 µM) | relative viability (Obatoclax + Pemetrexed; first compound 0.01 µM) | relative viability (Obatoclax + Pemetrexed; first compound 0.03162 µM) | relative viability (Obatoclax + Pemetrexed; first compound 0.1 µM) | relative viability (Obatoclax + Pemetrexed; first compound 0.3162 µM) | relative viability (Obatoclax + Pemetrexed; first compound 1 µM) | relative viability (Bortezomib + Pictilisib; first compound 0.0002 µM) | relative viability (Bortezomib + Pictilisib; first compound 0.000632 µM) | relative viability (Bortezomib + Pictilisib; first compound 0.002 µM) | relative viability (Bortezomib + Pictilisib; first compound 0.006325 µM) | relative viability (Bortezomib + Pictilisib; first compound 0.02 µM) | relative viability (Obatoclax + Pictilisib; first compound 0.01 µM) | relative viability (Obatoclax + Pictilisib; first compound 0.03162 µM) | relative viability (Obatoclax + Pictilisib; first compound 0.1 µM) | relative viability (Obatoclax + Pictilisib; first compound 0.3162 µM) | relative viability (Obatoclax + Pictilisib; first compound 1 µM)
NCI-H1944 | 0.4 | 0.485 | 0.478 | 0.351 | 0.252 | 0.649 | 0.551 | 0.638 | 0.608 | 0.602 | 0.34 | 0.314 | 0.349 | 0.319 | 0.276 | 0.34 | 0.332 | 0.337 | 0.295 | 0.336
NCI-H1975 | 0.377 | 0.406 | 0.344 | 0.314 | 0.154 | 0.298 | 0.297 | 0.3 | 0.309 | 0.208 | 0.271 | 0.22 | 0.173 | 0.105 | 0.115 | 0.299 | 0.313 | 0.258 | 0.292 | 0.199
NCI-H1993 | 0.526 | 0.598 | 0.616 | 0.47 | 0.445 | 0.593 | 0.544 | 0.727 | 0.545 | 0.346 | 0.915 | 0.654 | 0.804 | 0.528 | 0.625 | 0.804 | 0.833 | 0.842 | 1.02 | 0.733
NCI-H2009 | 0.357 | 0.377 | 0.444 | 0.282 | 0.151 | 0.978 | 1.05 | 0.974 | 0.993 | 0.471 | 0.602 | 0.675 | 0.797 | 0.0767 | 0.06 | 0.927 | 0.936 | 0.706 | 0.281 | 0.228
NCI-H2023 | 0.22 | 0.221 | 0.231 | 0.0739 | 0.0699 | 0.3 | 0.217 | 0.24 | 0.188 | 0.134 | 0.235 | 0.215 | 0.286 | 0.162 | 0.0837 | 0.29 | 0.22 | 0.265 | 0.151 | 0.0879
NCI-H2085 | 0.541 | 0.507 | 0.56 | 0.336 | 0.298 | 0.886 | 1 | 0.705 | 0.709 | 0.298 | 0.404 | 0.465 | 0.447 | 0.39 | 0.218 | 0.446 | 0.433 | 0.483 | 0.338 | 0.242
NCI-H2087 | 0.294 | 0.193 | 0.265 | 0.0921 | 0.0912 | 0.623 | 0.675 | 0.688 | 0.674 | 0.473 | 0.77 | 0.74 | 0.7 | 0.159 | 0.0891 | 0.908 | 0.925 | 0.825 | 0.334 | 0.206
NCI-H2126 | 0.602 | 0.595 | 0.55 | 0.561 | 0.27 | 0.661 | 0.62 | 0.703 | 0.704 | 0.649 | 0.462 | 0.497 | 0.535 | 0.465 | 0.483 | 0.524 | 0.464 | 0.554 | 0.481 | 0.482
NCI-H2170 | 0.452 | 0.51 | 0.467 | 0.373 | 0.251 | 0.257 | 0.243 | 0.266 | 0.276 | 0.283 | 0.29 | 0.238 | 0.329 | 0.294 | 0.202 | 0.369 | 0.278 | 0.316 | 0.334 | 0.295
NCI-H2347 | 0.606 | 0.636 | 0.561 | 0.549 | 0.394 | 0.399 | 0.419 | 0.37 | 0.392 | 0.38 | 0.803 | 0.587 | 0.564 | 0.318 | 0.0071 | 0.904 | 0.648 | 0.695 | 0.489 | 0.831
NCI-H2405 | 0.758 | 0.618 | 0.687 | 0.615 | 0.171 | 1.11 | 1.01 | – | 1.07 | 0.927 | 0.462 | – | 0.464 | 0.152 | 0.148 | 0.508 | 0.461 | – | 0.497 | 0.392
NCI-H3122 | 0.372 | 0.364 | 0.46 | 0.379 | 0.298 | 0.19 | 0.202 | 0.2 | 0.203 | 0.221 | 0.547 | 0.654 | 0.688 | 0.62 | 0.167 | 0.575 | 0.634 | 0.767 | 0.615 | 0.497
PC-3 [JPC-3] | 0.807 | 0.882 | 0.806 | 0.834 | 0.543 | 1.07 | 0.933 | 0.925 | 0.645 | 0.476 | 0.795 | 0.762 | 0.804 | 0.281 | 0.26 | 0.794 | 0.676 | 0.819 | 0.685 | 0.834
PC-14 | 0.179 | 0.2 | 0.253 | 0.0601 | 0.0537 | 0.129 | 0.147 | 0.125 | 0.149 | 0.109 | 0.685 | 0.726 | 0.632 | 0.0319 | 0.0362 | 0.712 | 0.622 | 0.681 | 0.716 | 0.324
RERF-LC-KJ | 0.73 | 0.677 | 0.695 | 0.272 | 0.242 | 0.466 | 0.461 | 0.448 | 0.457 | 0.45 | 0.573 | 0.528 | 0.523 | 0.171 | 0.203 | 0.543 | 0.587 | 0.538 | 0.513 | 0.334
SK-LU-1 | 0.594 | 0.661 | 0.618 | 0.396 | 0.183 | 0.861 | 0.984 | 0.937 | 0.759 | 0.415 | 0.521 | 0.528 | 0.503 | 0.166 | 0.14 | 0.616 | 0.559 | 0.46 | 0.364 | 0.256
SK-MES-1 | 0.402 | 0.379 | 0.331 | 0.187 | 0.11 | 1.02 | 0.904 | 0.874 | 0.776 | 0.292 | 0.337 | 0.303 | 0.347 | 0.148 | 0.143 | 0.393 | 0.379 | 0.392 | 0.402 | 0.268
SW 1573 | 0.51 | 0.652 | 0.451 | 0.111 | 0.0605 | 0.824 | 0.938 | 0.887 | 0.427 | 0.196 | 0.516 | 0.496 | 0.399 | 0.0724 | 0.0556 | 0.466 | 0.539 | 0.506 | 0.44 | 0.519
UMC-11 | 0.722 | 0.609 | 0.562 | 0.282 | 0.209 | 0.768 | 0.808 | 0.82 | 0.795 | 0.433 | 0.703 | 0.751 | 0.741 | 0.393 | 0.138 | 0.849 | 0.819 | 0.806 | 0.645 | 0.298
